Earlier results, collected in patent US20060127456A1, “Novel fiber-based consumer products based on new concepts of fiber modification” (priority 2004, published 2006).

II [Iodine]
increase of solubility (in 1% aqueous solution of PVP, versus water): ~17 fold | solubility in water (water): very sparingly soluble
